IC50 data for 19 compounds are collected here from patent publication US20220289753A1, “SHP2 INHIBITORS” (IRBM S.P.A., priority 2019, published 2022).

As usually defined, the IC50 is the concentration needed to halve the response being measured.

Assay [1] addresses T1, SHP-2 enzyme (Met1-Leu525) (Homo sapiens, UniProt Q06124).
T1 construct: synthetized by Origene, Met1-Leu525, cat #TP750155; purchased Origene TP750155
T1 sequence (Q06124 1-525): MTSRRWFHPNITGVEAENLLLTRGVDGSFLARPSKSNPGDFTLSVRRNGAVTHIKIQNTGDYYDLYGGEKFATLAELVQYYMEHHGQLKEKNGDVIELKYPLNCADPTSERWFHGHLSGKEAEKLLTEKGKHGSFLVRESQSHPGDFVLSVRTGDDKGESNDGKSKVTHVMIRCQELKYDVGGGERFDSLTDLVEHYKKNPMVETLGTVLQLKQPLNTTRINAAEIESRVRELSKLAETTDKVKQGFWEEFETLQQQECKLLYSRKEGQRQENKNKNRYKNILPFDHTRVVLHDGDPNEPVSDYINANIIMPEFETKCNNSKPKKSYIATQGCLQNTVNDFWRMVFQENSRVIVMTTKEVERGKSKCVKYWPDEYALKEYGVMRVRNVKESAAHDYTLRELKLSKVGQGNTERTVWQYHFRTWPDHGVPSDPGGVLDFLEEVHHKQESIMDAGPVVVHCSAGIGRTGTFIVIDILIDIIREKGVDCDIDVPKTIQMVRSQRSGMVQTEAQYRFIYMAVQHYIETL
Description: SHP2 inhibition enzymatic assay (DiFMUP substrate, IRS1 peptide activation). The following applies: SHP2 wt; activated by 500 nM IRS1 peptide; 75 μM DiFMUP substrate. It counts as biochemical. The method in brief: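 SHP-2 (Met1-Leu525, 0.5 nM final) preincubated 30 min with compounds and IRS1 activating peptide in HEPES pH 7.2 buffer with NaCl, KCl, EDTA, tween-20, 5 mM DTT. DiFMUP then added for 30 min at room temperature and fluorescence read. IC50 from four-parameter logistic fit of % inhibition.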

Assay [2] concerns ERK phosphorylation in KYSE-520 cells. Put plainly: Phospho-ERK cellular assay (Advanced phospho-ERK1/2 (Thr202/Tyr204) TR-FRET kit). The format is cell-based. The following applies: Homo sapiens, KYSE-520, 2 h, read-out: pERK IC50. The procedure:
Phospho-ERK Cellular Assay
ERK phosphorylation was detected using the “Advanced phospho-ERK1/2 (Thr202/Tyr204)” TR-FRET kit (Cisbio, Cat #64AERPEG/H), following the manufacturer reagents and instructions. […] After an overnight incubation, cells were treated with DMSO serial diluted compounds and incubated for 2 h at 37° C. After incubation, 2 μL/well of 4× Lysis Buffer (Cisbio 64KL1FDF), were added and incubated with cells for 30 min on gentle shaking. Finally, lysates were added with 2 μL/well of Eu cryptate (donor) and D2 (acceptor) conjugated antibodies (as provided by the Cisbio kit #64AERPEG/H) diluted 1:100 in Detection Buffer (as provided by the Cisbio kit #64AERPEG/H). Plates were then sealed and incubated at room temperature in the dark. After an overnight incubation, the TR-FRET signal was detected on a suitable reader (Envision, PerkinElmer). The lower the TR-FRET signal the higher the higher the SHP2 inhibition in cells. […] The percentage activity is fitted against the compound dilutions with a four-parameter logistic regression. The inflection point (i.e. the concentration at which half-maximal inhibition is achieved) is the IC50.

The mark [3] stands for this setting: KYSE-520 cells, 2 h at 37° C., TR-FRET.

Read-outs that look alike come from different tables or passages of the source.

`N[C@@H]1c2ccccc2CC12CCN(c1nc3nc(Sc4ccnc(O)c4Cl)cnc3[nH]1)CC2` [Example 152, (S)-4-((2-(1-amino-1,3-dihydrospiro[indene-2,4′-piperidin]-1′-yl)-1H-imidazo[4,5-b]pyrazin-5-yl)thio)-3-chloropyridin-2-ol]: the IC50 is less than 500 nM in assay [1] and greater than 5000 nM in assay [2].
As for `CNc1nccc(Sc2cnc3[nH]c(N4CCC5(CC4)Cc4ccccc4[C@H]5N)nc3n2)c1Cl` [Example 130, (S)-1′-(6-((3-chloro-2-(methylamino)pyridin-4-yl)thio)-1H-imidazo[4,5-b]pyrazin-2-yl)-1,3-dihydrospiro[indene-2,4′-piperidin]-1-amine], the concentration for half-maximal inhibition (IC50) in assay [1] is less than 500 nM; in assay [2] (setting [3]) it was less than 1000 nM.
With `N[C@@H]1c2ccccc2CC12CCN(c1nc3nc(Sc4ccncc4Cl)cnc3[nH]1)CC2` [Example 148, (S)-1′-(5-((3-chloropyridin-4-yl)thio)-1H-imidazo[4,5-b]pyrazin-2-yl)-1,3-dihydrospiro[indene-2,4′-piperidin]-1-amine], the IC50 was less than 500 nM in assay [1] and less than 1000 nM in assay [2].
For `N[C@@H]1c2cc(F)c(F)cc2CC12CCN(c1nc3nc(Sc4ccnc(NC5CC5)c4Cl)cnc3[nH]1)CC2` [Example 189, (S)-1′-(5-((3-chloro-2-(cyclopropylamino)pyridin-4-yl)thio)-1H-imidazo[4,5-b]pyrazin-2-yl)-5,6-difluoro-1,3-dihydrospiro[indene-2,4′-piperidin]-1-amine], the IC50 in assay [1] is less than 500 nM; in assay [2] (setting [3]), less than 1000 nM.
The like results for `CNc1nccc(Sc2cnc3[nH]c(N4CCC5(CC4)Cc4ncccc4[C@H]5N)nc3n2)c1C(F)(F)F` [Example 264, (5S)-1′-[5-[2-(methylamino)-3-(trifluoromethyl)pyridin-4-yl]sulfanyl-1H-imidazo[4,5-b]pyrazin-2-yl]spiro[5,7-dihydrocyclopenta[b]pyridine-6,4′-piperidine]-5-amine] were, in that order, less than 500 nM and less than 1000 nM.
On to `N[C@@H]1c2ccccc2CC12CCN(c1nc3nc(Sc4cccnc4OCc4ncco4)cnc3[nH]1)CC2` [Example 235, (S)-1′-(5-((2-(oxazol-2-ylmethoxy)pyridin-3-yl)thio)-1H-imidazo[4,5-b]pyrazin-2-yl)-1,3-dihydrospiro[indene-2,4′-piperidin]-1-amine], for which the IC50 in assay [1] was less than 500 nM; in assay [2] (setting [3]), 1000 to 5000 nM.
For `C[C@@H]1OCC2(CCN(c3cc4nc(Sc5ccnc(N)c5Cl)cnc4[nH]3)CC2)[C@@H]1N` [Example 268, (3S,4S)-8-(2-((2-amino-3-chloropyridin-4-yl)thio)-5H-pyrrolo[2,3-b]pyrazin-6-yl)-3-methyl-2-oxa-8-azaspiro[4.5]decan-4-amine] the same measures were less than 500 nM and less than 1000 nM.
In the case of `CC1(N)CCN(c2nc3nc(Sc4ccccc4S(F)(F)(F)(F)F)cnc3[nH]2)CC1` [Example 74, 4-methyl-1-(5-((2-(pentafluoro-l6-sulfaneyl)phenyl)thio)-1H-imidazo[4,5-b]pyrazin-2-yl)piperidin-4-amine], the results for the concentration for half-maximal inhibition (IC50) in assay [1] and in assay [2] (setting [3]) were less than 500 nM and 1000 to 5000 nM, respectively.
Regarding `Cn1c(N2CCC(C)(N)CC2)nc2nc(Sc3cccnc3C(F)(F)F)cnc21` [Example 52, 4-methyl-1-(1-methyl-5-((2-(trifluoromethyl)pyridin-3-yl)thio)-1H-imidazo[4,5-b]pyrazin-2-yl)piperidin-4-amine], the figures for the IC50 in assay [1] and in assay [2] (setting [3]) were less than 500 nM and greater than 5000 nM, respectively.
On to `Nc1nccc(Sc2cnc3[nH]c(N4CCC5(CC4)Cc4c(F)cccc4[C@H]5N)nc3n2)c1Cl` [Example 206, (S)-1′-(5-((2-amino-3-chloropyridin-4-yl)thio)-1H-imidazo[4,5-b]pyrazin-2-yl)-4-fluoro-1,3-dihydrospiro[indene-2,4′-piperidin]-1-amine], for which the figures for the 50% inhibitory concentration (IC50) in assay [1] and in assay [2] (setting [3]) were less than 500 nM and less than 1000 nM, respectively.
`N[C@@H]1c2cccnc2CC12CCN(c1nc3ncc(Sc4ccnc(Cl)c4Cl)nc3[nH]1)CC2` [Example 171, (S)-1′-(5-((2,3-dichloropyridin-4-yl)thio)-1H-imidazo[4,5-b]pyrazin-2-yl)-5,7-dihydrospiro[cyclopenta[b]pyridine-6,4′-piperidin]-5-amine]: the values for the IC50 in assay [1] and in assay [2] (setting [3]) were less than 500 nM and less than 1000 nM, respectively.
For `Cn1cc2cccc(Sc3cnc4[nH]c(N5CCC6(CC5)Cc5ccccc5[C@H]6N)nc4n3)c2n1` [Example 202, (S)-1′-(5-((2-methyl-2H-indazol-7-yl)thio)-1H-imidazo[4,5-b]pyrazin-2-yl)-1,3-dihydrospiro[indene-2,4′-piperidin]-1-amine] the same measures were less than 500 nM and 1000 to 5000 nM.
For `COc1nccc(Sc2cnc3[nH]c(N4CCC5(CC4)Cc4ccc(Br)cc4[C@H]5N)nc3n2)c1Cl` [Example 228, (S)-6-bromo-1′-(5-((3-chloro-2-methoxypyridin-4-yl)thio)-1H-imidazo[4,5-b]pyrazin-2-yl)-1,3-dihydrospiro[indene-2,4′-piperidin]-1-amine] the same measures were less than 500 nM and greater than 5000 nM.
Turning to `N[C@@H]1c2ccccc2CC12CCN(c1nc3nc(N4CCCc5ncccc54)cnc3[nH]1)CC2` [Example 249, (S)-1′-(5-(3,4-dihydro-1,5-naphthyridin-1(2H)-yl)-1H-imidazo[4,5-b]pyrazin-2-yl)-1,3-dihydrospiro[indene-2,4′-piperidin]-1-amine], the results for the IC50 in assay [1] and in assay [2] (setting [3]) were less than 500 nM and less than 1000 nM, respectively.
For `N[C@@H]1c2ccccc2CC12CCN(c1nc3nc(Sc4cccnc4N4CCCC4)cnc3[nH]1)CC2` [Example 225, (S)-1′-(5-((2-(pyrrolidin-1-yl)pyridin-3-yl)thio)-1H-imidazo[4,5-b]pyrazin-2-yl)-1,3-dihydrospiro[indene-2,4′-piperidin]-1-amine] the same measures were less than 500 nM and greater than 5000 nM.
For the compound `Nc1nccc(Sc2cnc3[nH]c(N4CCC5(CC4)Cc4ccc(CO)cc4[C@H]5N)nc3n2)c1Cl` [Example 244, (S)-(1-amino-1′-(5-((2-amino-3-chloropyridin-4-yl)thio)-1H-imidazo[4,5-b]pyrazin-2-yl)-1,3-dihydrospiro[indene-2,4′-piperidin]-6-yl)methanol], the IC50 was less than 500 nM in assay [1] and less than 1000 nM in assay [2] (setting [3]).
For `Nc1nccc(Sc2cnc3[nH]c(N4CCC5(CC4)Cc4ncc(F)cc4[C@@H]5N)nc3n2)c1Cl` [Example 229, (R)-1′-(5-((2-amino-3-chloropyridin-4-yl)thio)-1H-imidazo[4,5-b]pyrazin-2-yl)-3-fluoro-5,7-dihydrospiro[cyclopenta[b]pyridine-6,4′-piperidin]-5-amine] the same measures were less than 500 nM and greater than 5000 nM.
For `Nc1nccc(Sc2cnc3[nH]c(N4CCC5(CC4)Cc4ccc(N6CCOCC6)cc4[C@H]5N)nc3n2)c1Cl` [Example 223, (S)-1′-(5-((2-amino-3-chloropyridin-4-yl)thio)-1H-imidazo[4,5-b]pyrazin-2-yl)-6-morpholino-1,3-dihydrospiro[indene-2,4′-piperidin]-1-amine] the same measures were less than 500 nM and greater than 5000 nM.
For `COc1cnccc1Sc1cnc2nc(N3CCC4(CC3)Cc3ccccc3[C@H]4N)[nH]c2n1` [Example 177, (S)-1′-(6-((3-methoxypyridin-4-yl)thio)-1H-imidazo[4,5-b]pyrazin-2-yl)-1,3-dihydrospiro[indene-2,4′-piperidin]-1-amine] the same measures were less than 500 nM and less than 1000 nM.
